The values below are quoted from earlier work in article PMC4346355 (Journal of computer-aided molecular design, 2014).

Data set [1] deals with strand transfer activity of HIV integrase.
Data set [2] relates to interaction of LEDGF with integrase.
For data set [3], the system named is HIV-1 infection of MT-4 cells. Particulars: read-out: EC50 HIV-1 infection of MT-4 cells.
The test system of data set [4] is HIV-1 infection of PBMC cells. To be noted: read-out: EC50 HIV-1 infection of PBMC cells.
The target in data set [5] is HIV integrase catalytic core domain core4H (additional Y131D mutation). To be noted: read-out: SPR KD (core4H).
The target in data set [6] is LEDGF-integrase interaction. To be noted: assay not named.

Like-named read-outs stand apart in the source and are kept apart here.

For `COc1cccc2c1c(/C(O)=C/C(=O)C(=O)O)cn2Cc1ccc(F)cc1` [CHI-1043], the “inhibition in active site directed strand transfer assay” value in data set [1] is 0.14 µM. For the same compound, the “inhibition in AlphaScreen assay for binding at the LEDGF site” value in data set [2] is 36 µM. With `CCCC(C(=O)O)c1c(C)nc2ccc(Cl)cc2c1-c1ccccc1` (centres unmarked) [CX04328], the IC50 in data set [1] (read-out: IC50 inhibition of strand transfer activity) is 19.5 µM; in data set [2] (assay not given, series assayed in AlphaScreen) it was 1.37 µM. Further, the EC50 in data set [3] is 2.73 µM; in data set [4], 3.45 µM.

For `C=CCN(Cc1ccccc1C(=O)NCc1ccccc1)Cc1ccc2c(c1C(=O)O)OCO2` [Compound 3ZSX], in data set [5], the Kd was 1060 µM. With `CN(Cc1ccccc1C(=O)NCC1CCCCC1)Cc1ccc2c(c1C(=O)O)OCO2` [Compound 3ZSY], the Kd in data set [5] was more than 2000 µM. On to `CC[C@H](C)NC(=O)c1ccccc1CN(C)Cc1ccc2c(c1C(=O)O)OCO2` [Compound 3ZSZ], for which the Kd in data set [5] was more than 2000 µM.

For the compound `O=C(NCC1CCCCC1)c1cc(S(=O)(=O)N2CCCCC2)cc(O)c1O` [N-(cyclohexylmethyl)-2,3-dihydroxy-5-(piperidin-1-ylsulfonyl) benzamide], the IC50 was 19 µM in data set [1] (read-out: IC50 strand transfer) and 8 µM in data set [6].
